Data published in patent US7220876B2, “Arylcycloalkyl derivatives having branched side chains, processes for their preparation and their use as pharmaceuticals” (Sanofi-Aventis Deutschland GmbH, priority 2003, dated 2007).

Target: T1, human PPARalpha (Homo sapiens, UniProt Q07869)
T1 construct: human PPARalpha receptor (amino acids S167-Y468); expressed in transfected cells; host or cells: HEK (human embryo kidney) cells, stably transfected with pcDNA3 carrying the fusion construct
T1 sequence (Q07869 167-468): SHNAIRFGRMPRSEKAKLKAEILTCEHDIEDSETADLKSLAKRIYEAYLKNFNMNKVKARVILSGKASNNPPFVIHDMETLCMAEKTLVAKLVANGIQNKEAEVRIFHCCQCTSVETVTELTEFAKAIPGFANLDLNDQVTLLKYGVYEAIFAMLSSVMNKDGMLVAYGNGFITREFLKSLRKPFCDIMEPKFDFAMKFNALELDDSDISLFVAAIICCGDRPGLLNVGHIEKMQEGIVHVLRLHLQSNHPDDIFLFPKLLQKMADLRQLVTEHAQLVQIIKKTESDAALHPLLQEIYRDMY
Experiment: Cellular PPARalpha assay (stably transfected HEK luciferase reporter cell line)
Type: cell-based
Details: GR-GAL4-humanPPARalpha-LBD, luciferase readout
Method: The potency of substances which bind to human PPARalpha and activate in an agonistic manner is analyzed using a stably transfected HEK cell line (HEK=human embryo kidney) which is referred to here as PPARalpha reporter cell line. It contains two genetic elements, a luciferase reporter element (pdeltaM-GAL4-Luc-Zeo) and a PPARalpha fusion protein (GR-GAL4-humanPPARalpha-LBD) which mediates expression of the luciferase reporter element depending on a PPARalpha ligand. The stably and constitutively expressed fusion protein GR-GAL4-humanPPARalpha-LBD binds in the cell nucleus of the PPARalpha reporter cell line via the GAL4 protein portion to the GAL4 DNA binding motifs 5′-upstream of the luciferase reporter element which is integrated in the genome of the cell line. There is only little expression of the luciferase reporter gene without addition of a PPARalpha ligand if fatty acid-depleted fetal calf serum (cs-FCS) is used in the assay. PPARalpha ligands bind and activate the PPARalpha fusion protein and thereby bring about expression of the luciferase reporter gene. The luciferase which is formed can be detected by means of chemiluminescence via an appropriate substrate.
The PPARalpha reporter cell line was prepared in 2 stages. Firstly, the luciferase reporter element was constructed and stably transfected into HEK cells. […] The minimal MMTV promoter section contains a CCAAT box and a TATA element in order to enable efficient transcription by RNA polymerase II. […] Then the complete Photinus pyralis gene (Genbank Accession # M15077) was cloned in 3′-downstream of the GAL4-MMTV element. After sequencing, the luceriferase reporter element consisting of five GAL4 binding sites, MMTV promoter and luciferase gene was recloned into a plasmid which confers zeocin resistance in order to obtain the plasmid pdeltaM-GAL4-Luc-Zeo. This vector was transfected into HEK cells in accordance with the statements in Ausubel, F. M. et al. (Current protocols in molecular biology, Vol. 1-3, John Wiley & Sons, Inc., 1995). […] In a second step, the PPARalpha fusion protein (GR-GAL4-humanPPARalpha-LBD) was introduced into the stable cell clone described. […] The cDNA of the ligand-binding domain of the human PPARalpha receptor (amino acids S167-Y468; Genbank Accession # S74349) was cloned in at the 3′-end of this GR-GAL4 construct. The fusion construct prepared in this way (GR-GAL4-humanPPARalpha-LBD) was recloned into the plasmid pcDNA3 (from Invitrogen) in order to enable constitutive expression therein by the cytomegalovirus promoter. This plasmid was linearized with a restriction endonuclease and stably transfected into the previously described cell clone containing the luciferase reporter element. The finished PPARalpha reporter cell line which contains a luciferase reporter element and constitutively expresses the PPARalpha fusion protein (GR-GAL4-human PPARalpha-LBD) was isolated by selection with zeocin (0.5 mg/ml) and G418 (0.5 mg/ml).
The activity of PPARalpha agonists is determined in a 3-day assay which is described below: […]

| Compound | EC50 |
| --- | --- |
| CCCCNC(=O)N(CCOC1CCCC(OCc2cccc(C)c2C(=O)O)C1)C(C)CC(C)C (mixture of isomers) [XXII, 2-(cis-3-{2-[3-butyl-1-((1S)/(1R),3-dimethylbutyl)-ureido]ethoxy}cyclohexyloxymethyl)-6-methylbenzoic acid] | 3.3 nM |
| Cc1cccc(CO[C@@H]2CCC[C@H](OCCN(C(=O)Nc3cccc(F)c3)C3CC3)C2)c1C(=O)O (racemic) [XLV, 2-(cis-3-{2-[1-cyclopropyl-3-(3-fluorophenyl)-ureido]ethoxy}cyclohexyloxymethyl)-6-methylbenzoic acid] | 90 nM |
| Cc1ccccc1NC(=O)N(CCO[C@H]1CCC[C@@H](OCc2cccc(C)c2C(=O)O)C1)C1CCCCC1 (racemic) [XV, 2-{cis-3-[2-(1-cyclohexyl-3-o-tolylureido)ethoxy]cyclohexyloxymethyl}-6-methylbenzoic acid] | 31 nM |
| Cc1cccc(CO[C@@H]2CCC[C@H](OCCN(C(=O)Nc3cccc(F)c3)C3CCCCC3)C2)c1C(=O)O (racemic) [XVI, 2-(cis-3-{2-[1-cyclohexyl-3-(3-fluorophenyl)-ureido]ethoxy}cyclohexyloxymethyl)-6-methylbenzoic acid] | 38 nM |
| CCCCNC(=O)N(CCO[C@H]1CCC[C@@H](OCc2cccc(C)c2C(=O)O)C1)C1CCCCC1 (racemic) [XVII, 2-{cis-3-[2-(3-butyl-1-cyclohexylureido)ethoxy]cyclohexyloxymethyl}-6-methylbenzoic acid] | 84 nM |
| CCCCCCCN(CCO[C@H]1CCC[C@@H](OCc2cccc(C)c2C(=O)O)C1)C(=O)NCCCC (racemic) [XXXIX, 2-{cis-3-[2-(3-butyl-1-heptylureido)ethoxy]cyclohexyloxy-methyl}-6-methylbenzoic acid] | 0.17 nM |
| Cc1cccc(CO[C@@H]2CCC[C@H](OCCN(CCCc3ccccc3)C(=O)Nc3ccccc3)C2)c1C(=O)O [Example I, 2-{(1R,3S)-3-[2-(1-[3-phenylpropyl]-3-phenylureido)ethoxy]cyclohexyloxymethyl}-6-methylbenzoic acid] | 1.9 nM |
| Cc1cccc(CO[C@@H]2CCC[C@H](OCCN(CCc3ccc(Cl)cc3)C(=O)Nc3ccccc3)C2)c1C(=O)O [II, 2-{(1R,3S)-3-[2-(1-[2-(4-chlorophenyl)ethyl]-3-phenylureido)ethoxy]cyclohexyloxymethyl}-6-methylbenzoic acid] | 4.9 nM |
| CCCCCCCN(CCO[C@H]1CCC[C@@H](OCc2cccc(C)c2C(=O)O)C1)C(=O)Nc1ccccc1 [IX, 2-{(1R,3S)-3-[2-(1-heptyl-3-phenylureido)ethoxy]cyclohexyloxymethyl}-6-methylbenzoic acid] | 0.13 nM |
| CCCCCN(CCO[C@H]1CCC[C@@H](OCc2cccc(C)c2C(=O)O)C1)C(=O)Nc1ccccc1 [VII, 2-{(1 R,3S)-3-[2-(1-pentyl-3-phenylureido)ethoxy]cyclohexyloxymethyl}-6-methylbenzoic acid] | 1.7 nM |
| Cc1cccc(CO[C@@H]2CCC[C@H](OCCN(CC(C)(C)C)C(=O)Nc3ccccc3)C2)c1C(=O)O [VIII, 2-((1R,3S)-3-{2-[1-(2,2-dimethylpropyl)-3-phenylureido]ethoxy}cyclohexyloxymethyl)-6-methylbenzoic acid] | 96 nM |
| CCCCNC(=O)N(CCO[C@H]1CCC[C@@H](OCc2cccc(C)c2C(=O)O)C1)Cc1ccc(C)cc1 [XII, 2-((1R,3S)-3-{2-[3-butyl-1-(4-methylbenzyl)ureido]ethoxy}-cyclohexyloxymethyl)-6-methylbenzoic acid] | 0.07 nM |
